A value given as a limit tells only on which side of the number the result lay.

T1 sequence (P14902 whole entry): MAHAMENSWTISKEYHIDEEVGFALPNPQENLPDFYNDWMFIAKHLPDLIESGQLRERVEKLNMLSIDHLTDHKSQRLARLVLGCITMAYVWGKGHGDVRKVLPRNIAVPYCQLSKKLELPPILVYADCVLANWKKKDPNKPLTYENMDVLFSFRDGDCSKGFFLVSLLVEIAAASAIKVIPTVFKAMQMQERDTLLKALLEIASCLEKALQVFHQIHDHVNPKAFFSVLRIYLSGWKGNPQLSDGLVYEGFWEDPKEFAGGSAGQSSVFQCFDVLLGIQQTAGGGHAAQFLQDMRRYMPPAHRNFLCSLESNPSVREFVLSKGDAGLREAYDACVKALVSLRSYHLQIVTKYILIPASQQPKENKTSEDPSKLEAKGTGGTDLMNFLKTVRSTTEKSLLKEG

This test concerns the target T1, IDO1 (Homo sapiens, UniProt P14902).
T1 construct: endogenous in cells; host or cells: HeLa cells (ATCC), IFNgamma-induced
As to the kind of experiment: IDO1 cell-based assay (HeLa cells, IFNgamma-induced, N-formylkynurenine/L-tryptophan by RFMS). Conditions: 10 ng/mL IFNgamma, 24 hours. The method in brief: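 HeLa cells stimulated with 10 ng/mL IFNgamma and exposed to compound (0.5% DMSO final) for 24 h at 37 °C. Conditioned media deproteinized, then N-formylkynurenine and L-tryptophan quantified by RapidFire MS with deuterated tryptophan internal standard; IC50 by curve fitting. Viability checked by CellTiter-Glo.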
Broadly, the IC50 is the concentration that gives 50% inhibition. Consider `CCC(NC(=O)c1ccc(Cl)cc1)[C@H]1[C@@H]2C[C@@H](n3nncc3CO)C[C@@H]21` (stereo partly drawn) [Compound 155, 4-chloro-N-(1-((1R,3s,5S,6r)-3-(5-(hydroxymethyl)-1H-1,2,3-triazol-1-yl)bicyclo[3.1.0]hexan-6-yl)propyl)benzamide], for which the IC50 was in the range of 200 to 2000 nM.
The figure for `O=C(NC[C@@H]1[C@H]2C[C@H](n3cnc4cc(F)c(F)cc43)C[C@@H]12)c1ccc(F)cc1` [Compound 314, N-(((1R,3s,5S,6r)-3-(5,6-difluoro-1H-benzo[d]imidazol-1-yl)bicyclo[3.1.0]hexan-6-yl)methyl)-4-fluorobenzamide] is below 200 nM; for `Clc1ccc(-c2nnc(C3C4CC(Oc5ccnc6ccccc56)CC43)o2)cc1` (stereo not shown) [Compound 11, 2-(4-chlorophenyl)-5-(3-(quinolin-4-yloxy)bicyclo[3.1.0]hexan-6-yl)-1,3,4-oxadiazole] it is above 5000 nM; for `CC(C(=O)Nc1ccc(Cl)cc1)[C@H]1[C@@H]2C[C@@H](n3cnc4cc(F)c(F)cc43)C[C@@H]21` (stereo partly drawn) [Compound 281, N-(4-chlorophenyl)-2-((1R,3s, 5S, 6r)-3-(5,6-difluoro-1H-benzo[d]imidazol-1-yl)bicyclo[3.1.0]hexan-6-yl)propanamide] it is below 200 nM.
The same measure for `CC[C@@H](NC(=O)c1cccc(F)c1)[C@H]1[C@@H]2C[C@@H](n3cnc4cc(F)c(F)cc43)C[C@@H]21` [Compound 312, N-((R)-1-((1R,3S,5S,6r)-3-(5,6-difluoro-1H-benzo[d]imidazol-1-yl)bicyclo[3.1.0]hexan-6-yl)propyl)-3-fluorobenzamide]: below 200 nM.
The same measure for `CC(C)(NC(=O)c1ccc(C#N)cc1)C1[C@H]2CC(Oc3cnnc4ccccc34)C[C@@H]12` (stereo partly drawn) [Compound 88, N-(2-((1R,5S)-3-(cinnolin-4-yloxy)bicyclo[3.1.0]hexan-6-yl)propan-2-yl)-4-cyanobenzamide]: below 200 nM; for `O=C(Cc1ccc(Cl)cc1)NC1[C@H]2CC(Oc3ccnc4ccccc34)C[C@@H]12` (stereo partly drawn) [Compound 30, 2-(4-chlorophenyl)-N-((1R,5S)-3-(quinolin-4-yloxy)bicyclo[3.1.0]hexan-6-yl)acetamide]: below 200 nM; for `O=C(Cc1ccc(Cl)cc1)N[C@H]1[C@@H]2C[C@@H](n3cnc4ccc(F)cc4c3=O)C[C@@H]21` [Compound 62, 2-(4-chlorophenyl)-N-((1R,3s,5S,6r)-3-(6-fluoro-4-oxoquinazolin-3(4H)-yl)bicyclo[3.1.0]hexan-6-yl)acetamide]: 2000 to 5000 nM.
As to `Cn1cc(C(=O)NC[C@@H]2[C@H]3C[C@H](n4cnc5cc(F)c(F)cc54)C[C@@H]23)cn1` [Compound 319, N-(((1R,3s,5S,6r)-3-(5,6-difluoro-1H-benzo[d]imidazol-1-yl)bicyclo[3.1.0]hexan-6-yl)methyl)-1-methyl-1H-pyrazole-4-carboxamide], the IC50 is above 5000 nM.
For the molecule `CCC(NC(=O)c1ccc(Cl)cc1)[C@H]1[C@@H]2C[C@@H](n3cc(CO)nn3)C[C@@H]21` (stereo partly drawn) [Compound 146, 4-chloro-N-(1-((1R,3s,5S,6r)-3-(4-(hydroxymethyl)-1H-1,2,3-triazol-1-yl)bicyclo[3.1.0]hexan-6-yl)propyl)benzamide], the IC50 is 200 to 2000 nM.
The same measure for `CCC(NC(=O)c1ccc(Cl)cc1)[C@H]1[C@@H]2C[C@@H](Nc3ccc(C#N)cc3[N+](=O)[O-])C[C@@H]21` (stereo partly drawn) [Compound 269, 4-chloro-N-(1-((1R,3s,5S,6r)-3-((4-cyano-2-nitrophenyl)amino)bicyclo[3.1.0]hexan-6-yl)propyl)benzamide]: below 200 nM; for `CCC(NC(=O)c1ccc(Cl)cc1)[C@H]1[C@@H]2C[C@@H](N=[N+]=[N-])C[C@@H]21` (stereo partly drawn) [Compound 90, N-(1-((1R,3s,5S,6r)-3-azidobicyclo[3.1.0]hexan-6-yl)propyl)-4-chlorobenzamide]: 200 to 2000 nM.
For the molecule `CN(C(=O)Cc1ccc(Cl)cc1)[C@H]1[C@@H]2C[C@@H](Oc3cnnc4ccccc34)C[C@@H]21` [Compound 86, 2-(4-chlorophenyl)-N-((1R,3s,5S,6r)-3-(cinnolin-4-yloxy)bicyclo[3.1.0]hexan-6-yl)-N-methylacetamide], the IC50 was in the range of 2000 to 5000 nM.
The same measure for `CC(NC(=O)c1ccc(C#N)cc1)[C@H]1[C@@H]2C[C@@H](n3cnc4cc(F)ccc4c3=O)C[C@@H]21` (stereo partly drawn) [Compound 120, 4-cyano-N-(1-((1R,3s,5S,6r)-3-(7-fluoro-4-oxoquinazolin-3(4H)-yl)bicyclo[3.1.0]hexan-6-yl)ethyl)benzamide]: below 200 nM; for `CC[C@@H](NC(=O)c1ccc(Cl)cc1)[C@H]1[C@@H]2C[C@@H](n3cc(C#N)cn3)C[C@@H]21` [Compound 325, 4-chloro-N-((R)-1-((1R,3S,5S,6r)-3-(4-cyano-1H-pyrazol-1-yl)bicyclo[3.1.0]hexan-6-yl)propyl)benzamide]: below 200 nM; for `CCC(NC(=O)c1ccc2c(c1)OC(F)(F)O2)C1C2CC(Oc3ncnc4ccc(F)cc34)CC21` [Compound 69, 2,2-difluoro-N-(1-((1R,3s,5S,6r)-3-((6-fluoroquinazolin-4-yl)oxy)bicyclo[3.1.0]hexan-6-yl)propyl)benzo[d][1,3]dioxole-5-carboxamide]: below 200 nM.
Molecule `CC(NC(=O)c1ccc(C#N)cc1)[C@H]1[C@@H]2C[C@@H](n3cc(C4CC4)nn3)C[C@@H]21` (stereo partly drawn) [Compound 129, 4-cyano-N-(1-((1R,3s,5S,6r)-3-(4-cyclopropyl-1H-1,2,3-triazol-1-yl)bicyclo[3.1.0]hexan-6-yl)ethyl)benzamide] showed an IC50 of 200 to 2000 nM.
The same measure for `CCC(NC(=O)c1ccc(Cl)cc1)[C@H]1[C@@H]2C[C@@H](n3cnc4cc(Cl)ccc43)C[C@@H]21` (stereo partly drawn) [Compound 272, 4-chloro-N-(1-((1R,3s,5S,6r)-3-(5-chloro-1H-benzo[d]imidazol-1-yl)bicyclo[3.1.0]hexan-6-yl)propyl)benzamide]: below 200 nM.
The figure for `CC[C@@H](NC(=O)c1ccc(Cl)cc1)[C@H]1[C@@H]2C[C@@H](C(CO)CO)C[C@@H]21` [Compound 291, 4-chloro-N—((R)-1-((1R,3S,5S,6r)-3-(1,3-dihydroxypropan-2-yl)bicyclo[3.1.0]hexan-6-yl)propyl)benzamide] is 200 to 2000 nM.
Molecule `CC(NC(=O)c1ccc(C#N)cc1)[C@H]1[C@@H]2C[C@@H](n3cnc4ccc(F)cc4c3=O)C[C@@H]21` (stereo partly drawn) [Compound 108, 4-cyano-N-(1-((1R,3s,5S,6r)-3-(6-fluoro-4-oxoquinazolin-3(4H)-yl)bicyclo[3.1.0]hexan-6-yl)ethyl)benzamide] gave an IC50 below 200 nM.
The figure for `CCC(NC(=O)c1ccc(OC)nc1)C1C2CC(Oc3ncnc4ccc(F)cc34)CC21` [Compound 78, N-(1-((1R,3s,5S,6r)-3-((6-fluoroquinazolin-4-yl)oxy)bicyclo[3.1.0]hexan-6-yl)propyl)-6-methoxynicotinamide] is below 200 nM; for `CCC(NC(=O)c1ccc(Cl)cc1)[C@H]1[C@@H]2C[C@@H](Nc3c(F)cc(F)cc3[N+](=O)[O-])C[C@@H]21` (stereo partly drawn) [Compound 264, 4-chloro-N-(1-((1R,3s,5S,6r)-3-((2,4-difluoro-6-nitrophenyl)amino)bicyclo[3.1.0]hexan-6-yl)propyl)benzamide] it is below 200 nM; for `O=C(NC1C2CC(Oc3ccnc4ccccc34)CC21)c1ccc(Cl)cc1` (stereo not shown) [Compound 26, 4-chloro-N-(3-(quinolin-4-yloxy)bicyclo[3.1.0]hexan-6-yl)benzamide] it is 200 to 2000 nM.
The same measure for `CCC(NC(=O)c1ccc(Cl)cc1)[C@H]1[C@@H]2C[C@@H](n3cc4cc(F)ccc4n3)C[C@@H]21` (stereo partly drawn) [Compound 207, 4-chloro-N-(1-((1R,3s,5S,6r)-3-(5-fluoro-2H-indazol-2-yl)bicyclo[3.1.0]hexan-6-yl)propyl)benzamide]: below 200 nM; for `CCC(NC(=O)c1ccc(Cl)cc1)[C@H]1[C@@H]2C[C@@H](Oc3ccnc(C)c3F)C[C@@H]21` (stereo partly drawn) [Compound 93, 4-chloro-N-(1-((1R,3s,5S,6r)-3-((3-fluoro-2-methylpyridin-4-yl)oxy)bicyclo[3.1.0]hexan-6-yl)propyl)benzamide]: below 200 nM.
The same measure for `CC[C@@H](NC(=O)c1ccc(Cl)cc1)[C@H]1[C@@H]2C[C@@H](n3ccc(C4CC4)n3)C[C@@H]21` [Compound 343, 4-chloro-N-((R)-1-((1R,3S,5S,6r)-3-(3-cyclopropyl-1H-pyrazol-1-yl)bicyclo[3.1.0]hexan-6-yl)propyl)benzamide]: below 200 nM.
In the case of `CC(NC(=O)c1ccc(C#N)cc1)[C@H]1[C@@H]2C[C@@H](NC(=O)c3ccccn3)C[C@@H]21` (stereo partly drawn) [Compound 143, N-((1R,3s,5S,6r)-6-(1-(4-cyanobenzamido)ethyl)bicyclo[3.1.0]hexan-3-yl)picolinamide], the IC50 is below 200 nM.
Take `CCC(NC(=O)c1ccc(Cl)cc1)[C@H]1[C@@H]2C[C@@H](Oc3cc(=O)n(C)c4ccccc34)C[C@@H]21` (stereo partly drawn) [Compound 50, 4-chloro-N-(1-((1R,3s,5S,6r)-3-((1-methyl-2-oxo-1,2-dihydroquinolin-4-yl)oxy)bicyclo[3.1.0]hexan-6-yl)propyl)benzamide]: the IC50 is below 200 nM.
The figure for `O=C(NC[C@@H]1[C@H]2C[C@@H](Oc3ccc4nccc(Cl)c4c3)C[C@@H]12)c1ccc(Cl)cc1` [Compound 33, 4-chloro-N-(((1R,3r,5S,6r)-3-((4-chloroquinolin-6-yl)oxy)bicyclo[3.1.0]hexan-6-yl)methyl)benzamide] is 200 to 2000 nM; for `CC(NC(=O)c1ccc(C#N)cc1)[C@H]1[C@@H]2C[C@@H](Oc3cnnc4ccccc34)C[C@@H]21` (stereo partly drawn) [Compound 135, N-(1-((1R,3s,5S,6r)-3-(cinnolin-4-yloxy)bicyclo[3.1.0]hexan-6-yl)ethyl)-4-cyanobenzamide] it is 200 to 2000 nM.
The figure for `CCC(NC(=O)c1ccc(Cl)cc1)[C@H]1[C@@H]2C[C@@H](n3cc(C(N)=O)nn3)C[C@@H]21` (stereo partly drawn) [Compound 95, 1-((1R,3s,5S,6r)-6-(1-(4-chlorobenzamido)propyl)bicyclo[3.1.0]hexan-3-yl)-1H-1,2,3-triazole-4-carboxamide] is above 5000 nM.

(Values after patent US11173145B2, “Compounds useful as inhibitors of indoleamine 2,3-dioxygenase and/or tryptophan dioxygenase” (Board of Regents, The University of Texas System, priority 2017, dated 2021).)
